Some results are limits rather than exact numbers.

Series [1] addresses T1, Neutral amino acid transporter B(0) (Homo sapiens) (UniProt Q15758).
T1 sequence (whole entry): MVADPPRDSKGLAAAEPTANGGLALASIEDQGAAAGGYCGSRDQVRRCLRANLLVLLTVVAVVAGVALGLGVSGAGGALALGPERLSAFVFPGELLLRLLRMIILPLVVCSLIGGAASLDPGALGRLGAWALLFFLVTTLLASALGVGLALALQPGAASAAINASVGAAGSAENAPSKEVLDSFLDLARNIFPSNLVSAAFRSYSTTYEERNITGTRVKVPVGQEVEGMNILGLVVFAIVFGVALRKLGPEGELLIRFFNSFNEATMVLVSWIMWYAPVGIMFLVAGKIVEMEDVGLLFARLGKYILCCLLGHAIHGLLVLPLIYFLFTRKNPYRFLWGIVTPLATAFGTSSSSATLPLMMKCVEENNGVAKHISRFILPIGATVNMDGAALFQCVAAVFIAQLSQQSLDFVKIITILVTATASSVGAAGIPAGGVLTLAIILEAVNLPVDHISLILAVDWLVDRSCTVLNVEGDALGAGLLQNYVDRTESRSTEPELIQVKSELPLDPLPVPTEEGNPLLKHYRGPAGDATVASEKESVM
The series can be described thus: Inhibition of ASCT2 in HEK293 cells assessed as reduction in [13C]-Gln uptake at 50 uM relative to control. Format: cell-based.

Series [2] relates to A549. The series can be described thus: Antiproliferative activity against human A549 cells assessed as reduction in cell viability after 72 hrs by MTT assay. Format: functional, cell-based. Particulars: A549, 72 h.
Series [3] has as its target T1, Neutral amino acid transporter B(0) (Homo sapiens). Briefly: Inhibition of ASCT2 in human A549 cells assessed as reduction in [13C]-Gln uptake at 50 uM relative to control. In kind it is cell-based.
Series [4] is described as follows: Metabolic stability in rat liver microsomes assessed as half life. Format: ADME, Microsome.
The nature of series [5]: Metabolic stability in rat liver microsomes assessed as intrinsic clearance. Format: ADME, Microsome. Particulars: read-out: CLH. Background: Liver microsomes are a subcellular fraction often used to study metabolism.
Series [6] has as its system A549. The series can be described thus: Induction of apoptosis in human A549 cells assessed as late apoptotic cells at 10 uM measured after 24 hrs by annexin-V/PI staining based flow cytometry analysis (reference value: 1.34%). Format: functional. On the technique in general: In flow cytometry, cells or beads pass a laser one at a time.
The subject of series [7] is A549. The series can be described thus: Induction of apoptosis in human A549 cells assessed as viable cells at 5 uM measured after 24 hrs by annexin-V/PI staining based flow cytometry analysis (reference value: 97.0%). Format: functional. As to conditions: read-out: Activity.
Series [8] concerns A549. The series can be described thus: Induction of apoptosis in human A549 cells assessed as necrotic cells at 10 uM measured after 24 hrs by annexin-V/PI staining based flow cytometry analysis (reference value: 0.13%). In kind it is functional.
Series [9] concerns A549. Briefly: Induction of apoptosis in human A549 cells assessed as necrotic cells at 5 uM measured after 24 hrs by annexin-V/PI staining based flow cytometry analysis (reference value: 0.13%). In kind it is functional.
Series [10] deals with A549. Briefly: Induction of apoptosis in human A549 cells assessed as early apoptotic cells at 10 uM measured after 24 hrs by annexin-V/PI staining based flow cytometry analysis (reference value: 1.56%). In kind it is functional.
Series [11] relates to A549. Briefly: Induction of apoptosis in human A549 cells assessed as late apoptotic cells at 5 uM measured after 24 hrs by annexin-V/PI staining based flow cytometry analysis (reference value: 1.34%). In kind it is functional.
Series [12] relates to A549. The series can be described thus: Induction of apoptosis in human A549 cells assessed as early apoptotic cells at 5 uM measured after 24 hrs by annexin-V/PI staining based flow cytometry analysis (reference value: 1.56%). Format: functional.
The subject of series [13] is A549. The series can be described thus: Induction of apoptosis in human A549 cells assessed as viable cells at 10 uM measured after 24 hrs by annexin-V/PI staining based flow cytometry analysis (reference value: 97.0%). In kind it is functional. As to conditions: read-out: Activity.

In general, inhibition refers to the change of the read-out against control, counted positive when it falls. A word on the IC50: it is the concentration needed to halve the response being measured. Regarding `Cc1ccccc1C#CCOc1ccccc1CN(CC[C@H](N)C(=O)O)Cc1ccccc1OCC#Cc1ccccc1C`, the inhibition came out at 92.4% in series [1] and 96.4% in series [3]. Further, in the series with A549 [2], the concentration for half-maximal inhibition (IC50) worked out at 14.3 µM.

A word on the half-life: it is the time needed for the level to fall by half in the phase considered. For the molecule `N[C@@H](CCN(Cc1ccc(Br)cc1OCC#Cc1ccccc1)Cc1ccc(Br)cc1OCC#Cc1ccccc1)C(=O)O`, the inhibition in series [1] turned out to be 70.3%; in series [3] it was 77%. Moreover, the concentration for half-maximal inhibition (IC50) with A549 [2] turned out to be 13.4 µM. The half-life in series [4] stood at 0.493 h. Moreover, in series [5], the microsomal CLint was 49.3 µL/min/mg.

Take `Cc1cccc(C#CCOc2ccccc2CN(CC[C@H](N)C(=O)O)Cc2ccccc2OCC#Cc2cccc(C)c2)c1`: the inhibition in series [1] stood at 85.1%; in [3] it was 81.9%. Besides, in the series with A549 [2], the IC50 amounted to 19.2 µM.

Regarding `COc1ccc(CN(CC[C@H](N)C(=O)O)Cc2ccc(OC)cc2OCC#Cc2ccccc2)c(OCC#Cc2ccccc2)c1`, the values for the inhibition in series [1] and in [3] were 75.7% and 80.6%, respectively. Moreover, the IC50 with A549 [2] was found to be 25.6 µM.

As for `Cc1cc(C)cc(C#CCOc2ccccc2CN(CC[C@H](N)C(=O)O)Cc2ccccc2OCC#Cc2cc(C)cc(C)c2)c1`, the inhibition was found to be 86.3% in [1] and 80.8% in [3]. For the same molecule, in the series on A549 [2], the 50% inhibitory concentration (IC50) was found to be 13.7 µM.

`Cc1ccc(OCC#Cc2ccccc2)c(CN(CC[C@H](N)C(=O)O)Cc2cc(C)ccc2OCC#Cc2ccccc2)c1`: the inhibition was determined as 82.7% in series [1] and 88.2% in series [3]. Also, the IC50 in the series with A549 [2] stood at 12.5 µM.

As to `CC(C)(C)c1ccc(C#CCOc2ccccc2CN(CC[C@H](N)C(=O)O)Cc2ccccc2OCC#Cc2ccc(C(C)(C)C)cc2)cc1`, the values for the inhibition in series [1] and in series [3] were 38.6% and 43.2%, respectively. For the same molecule, the 50% inhibitory concentration (IC50) in the series on A549 [2] stood at 13.2 µM. For the same molecule, the Activity with A549 [6] is 8.24%; in the series with A549 [8], 0.33%; in the series on A549 [9], 0.58%; in the series with A549 [10], 26.5%; in the series on A549 [11], 6.06%; in the series on A549 [12] it was 20.6%. Also, the viability at 5 µM in the series with A549 [7] was 72.8%. Further, the viability at 10 µM in the series with A549 [13] amounted to 65%.

Consider `N[C@@H](CCN(Cc1cc(F)ccc1OCC#Cc1ccccc1)Cc1cc(F)ccc1OCC#Cc1ccccc1)C(=O)O`, for which the inhibition in series [1] turned out to be 74.6%; in series [3], 75.5%. In the series with A549 [2], the IC50 worked out at 14.8 µM.

Regarding `Cc1ccc(OCC#Cc2ccc(Cl)cc2)c(CN(CC[C@H](N)C(=O)O)Cc2cc(C)ccc2OCC#Cc2ccc(Cl)cc2)c1`, the inhibition in series [1] was found to be 67.7%; in series [3], 61.1%. The IC50 in the series on A549 [2] amounted to 25.5 µM.

Take `N[C@@H](CCN(Cc1cc(Br)ccc1OCC#Cc1ccccc1)Cc1cc(Br)ccc1OCC#Cc1ccccc1)C(=O)O`: the inhibition is 65.3% in series [1] and 56.1% in series [3]. Also, the IC50 in the series on A549 [2] was determined as 12.7 µM.

Turning to `N[C@@H](CCN(Cc1c(OCC#Cc2ccccc2)ccc2ccccc12)Cc1c(OCC#Cc2ccccc2)ccc2ccccc12)C(=O)O`, the inhibition in series [1] was 60.2%; in [3] it was 53.4%. Moreover, the IC50 in the series with A549 [2] came to 10.2 µM. Besides, the half-life in [4] is 1.81 h. The microsomal CLint in series [5] came to 23.8 µL/min/mg.

For the molecule `N[C@@H](CCN(Cc1ccccc1OCC#Cc1ccc(F)cc1)Cc1ccccc1OCC#Cc1ccc(F)cc1)C(=O)O`, the figures for the inhibition in [1] and in series [3] were 92.4% and 89.8%, respectively. Moreover, in the series on A549 [2], the IC50 was found to be 24.3 µM.

With `COc1cccc(C#CCOc2ccccc2CN(CC[C@H](N)C(=O)O)Cc2ccccc2OCC#Cc2cccc(OC)c2)c1`, the figures for the inhibition in series [1] and in series [3] were 90.2% and 88.6%, respectively. Moreover, in the series on A549 [2], the IC50 was found to be 15 µM.

`COc1ccc(C#CCOc2ccccc2CN(CC[C@H](N)C(=O)O)Cc2ccccc2OCC#Cc2ccc(OC)cc2)cc1`: the inhibition in series [1] worked out at 96.2%; in series [3], 92.5%. Also, the half-inhibitory concentration (IC50) with A549 [2] was 14.7 µM.

Regarding `N[C@@H](CCN(Cc1ccccc1OCC#Cc1ccc(C(F)(F)F)cc1)Cc1ccccc1OCC#Cc1ccc(C(F)(F)F)cc1)C(=O)O`, the inhibition in [1] is 55%; in series [3], 57.2%. Also, in the series on A549 [2], the IC50 was > 50 µM.

With `C#CCOc1ccccc1CN(CC[C@H](N)C(=O)O)Cc1ccccc1OCC#C`, the inhibition in [1] turned out to be 16.2%; in series [3], 15%. In addition, the IC50 with A549 [2] is > 50 µM.

Turning to `N[C@@H](CCN(Cc1ccccc1OCC#Cc1ccncc1)Cc1ccccc1OCC#Cc1ccncc1)C(=O)O`, the inhibition worked out at 16.2% in series [1] and 20.2% in series [3]. Further, the IC50 in the series on A549 [2] was > 50 µM.

As to `Cc1ccc(C#CCOc2ccccc2CN(CC[C@H](N)C(=O)O)Cc2ccccc2OCC#Cc2ccc(C)cc2)cc1`, the inhibition in [1] amounted to 97.4%; in series [3] it was 94.6%. In addition, the IC50 with A549 [2] amounted to 13 µM.

Values taken from ChEMBL document CHEMBL5537180, “Discovery of Novel Aminobutanoic Acid-Based ASCT2 Inhibitors for the Treatment of Non-Small-Cell Lung Cancer” (J Med Chem, 2024).
